Measured values taken from the kinase profiling compilation of Christmann-Franck et al. (2016).

How the values were obtained:
Assay in all cases: radiometric filter-binding kinase assay
[1] = target: IGF1R (human) (UniProt P08069)
[2] = target: SYK (human) (UniProt P43405)
[3] = target: TAOK1 (human) (UniProt Q7L7X3)
[4] = target: MAP3K1 (human) (UniProt Q13233)
[5] = target: HIPK1 (human) (UniProt Q86Z02)
[6] = target: TTK (human) (UniProt P33981)
[7] = target: HIPK2 (human) (UniProt Q9H2X6)
[8] = target: CSNK1D (human) (UniProt P48730)
[9] = target: FLT1 (human) (UniProt P17948)
[10] = target: FGFR1 (human) (UniProt P11362)
[11] = target: PAK6 (human) (UniProt Q9NQU5)
[12] = target: MYLK (human) (UniProt Q15746)
[13] = target: MAP3K5 (human) (UniProt Q99683)
[14] = target: YES1 (human) (UniProt P07947)
[15] = target: MAPK9 (human) (UniProt P45984)
[16] = target: STK11 CAB39 STRADA (human) (UniProt Q9Y376+Q7RTN6+Q15831)
[17] = target: AURKB (human) (UniProt Q96GD4)
Chain of AURKB (human) (Q96GD4 whole entry, looked up): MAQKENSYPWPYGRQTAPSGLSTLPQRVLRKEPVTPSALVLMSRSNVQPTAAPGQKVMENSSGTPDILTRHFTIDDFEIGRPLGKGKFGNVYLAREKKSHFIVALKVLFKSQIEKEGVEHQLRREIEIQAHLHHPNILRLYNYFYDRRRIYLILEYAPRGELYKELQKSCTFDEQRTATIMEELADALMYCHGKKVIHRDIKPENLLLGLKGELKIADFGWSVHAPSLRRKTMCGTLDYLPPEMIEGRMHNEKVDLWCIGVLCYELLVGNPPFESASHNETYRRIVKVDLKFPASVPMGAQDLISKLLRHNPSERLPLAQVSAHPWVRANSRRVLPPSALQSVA

[18] = target: GCK (human) (UniProt Q12851)
[19] = target: MELK (human) (UniProt Q14680)
[20] = target: AURKA (human) (UniProt O14965)
[21] = target: MAP3K9 (human) (UniProt P80192)
[22] = target: CHEK1 (human) (UniProt O14757)
[23] = target: MAPK10 (human) (UniProt P53779)
Chain of MAPK10 (human) (P53779 whole entry, looked up): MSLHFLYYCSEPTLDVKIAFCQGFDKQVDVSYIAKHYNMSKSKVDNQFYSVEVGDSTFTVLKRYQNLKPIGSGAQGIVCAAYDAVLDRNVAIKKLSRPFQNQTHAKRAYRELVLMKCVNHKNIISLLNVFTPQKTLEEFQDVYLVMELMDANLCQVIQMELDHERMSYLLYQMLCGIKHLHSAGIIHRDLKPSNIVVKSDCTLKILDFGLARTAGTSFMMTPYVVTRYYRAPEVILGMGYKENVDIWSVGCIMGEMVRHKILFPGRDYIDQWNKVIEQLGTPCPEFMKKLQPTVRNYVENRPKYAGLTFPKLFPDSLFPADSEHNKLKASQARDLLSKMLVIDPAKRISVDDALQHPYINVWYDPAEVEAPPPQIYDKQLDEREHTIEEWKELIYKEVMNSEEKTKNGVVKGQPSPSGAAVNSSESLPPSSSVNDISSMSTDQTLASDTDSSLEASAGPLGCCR

[24] = target: EPHB1 (human) (UniProt P54762)
Chain of EPHB1 (human) (P54762 whole entry, looked up): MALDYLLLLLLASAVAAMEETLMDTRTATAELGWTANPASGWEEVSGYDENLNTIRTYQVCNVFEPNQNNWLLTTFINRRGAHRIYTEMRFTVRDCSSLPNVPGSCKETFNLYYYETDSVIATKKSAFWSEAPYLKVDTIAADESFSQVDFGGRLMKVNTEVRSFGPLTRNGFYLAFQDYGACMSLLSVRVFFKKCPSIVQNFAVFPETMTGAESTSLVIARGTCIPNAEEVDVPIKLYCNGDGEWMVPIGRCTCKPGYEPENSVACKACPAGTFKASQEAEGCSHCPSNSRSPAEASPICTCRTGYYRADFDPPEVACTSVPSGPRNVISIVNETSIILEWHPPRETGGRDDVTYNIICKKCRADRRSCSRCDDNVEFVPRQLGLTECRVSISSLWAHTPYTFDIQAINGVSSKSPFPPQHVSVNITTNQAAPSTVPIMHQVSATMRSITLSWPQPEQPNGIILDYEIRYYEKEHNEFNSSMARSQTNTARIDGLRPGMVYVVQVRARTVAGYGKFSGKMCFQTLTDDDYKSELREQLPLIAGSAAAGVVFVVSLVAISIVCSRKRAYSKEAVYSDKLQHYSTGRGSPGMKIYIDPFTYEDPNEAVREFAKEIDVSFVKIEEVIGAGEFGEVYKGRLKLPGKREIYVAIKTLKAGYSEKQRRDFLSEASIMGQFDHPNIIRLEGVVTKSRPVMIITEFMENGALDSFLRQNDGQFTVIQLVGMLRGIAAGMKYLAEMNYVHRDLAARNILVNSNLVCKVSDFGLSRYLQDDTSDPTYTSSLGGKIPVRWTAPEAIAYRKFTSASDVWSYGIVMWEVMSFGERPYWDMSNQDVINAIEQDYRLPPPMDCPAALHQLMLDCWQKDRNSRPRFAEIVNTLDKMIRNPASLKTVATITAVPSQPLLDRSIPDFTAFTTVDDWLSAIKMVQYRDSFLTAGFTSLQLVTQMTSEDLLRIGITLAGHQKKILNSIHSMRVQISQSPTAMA

[25] = test system: AKT2 (human), P31751 [S474D]
Chain of AKT2 (human), P31751 [S474D] (P31751 whole entry S474D, looked up): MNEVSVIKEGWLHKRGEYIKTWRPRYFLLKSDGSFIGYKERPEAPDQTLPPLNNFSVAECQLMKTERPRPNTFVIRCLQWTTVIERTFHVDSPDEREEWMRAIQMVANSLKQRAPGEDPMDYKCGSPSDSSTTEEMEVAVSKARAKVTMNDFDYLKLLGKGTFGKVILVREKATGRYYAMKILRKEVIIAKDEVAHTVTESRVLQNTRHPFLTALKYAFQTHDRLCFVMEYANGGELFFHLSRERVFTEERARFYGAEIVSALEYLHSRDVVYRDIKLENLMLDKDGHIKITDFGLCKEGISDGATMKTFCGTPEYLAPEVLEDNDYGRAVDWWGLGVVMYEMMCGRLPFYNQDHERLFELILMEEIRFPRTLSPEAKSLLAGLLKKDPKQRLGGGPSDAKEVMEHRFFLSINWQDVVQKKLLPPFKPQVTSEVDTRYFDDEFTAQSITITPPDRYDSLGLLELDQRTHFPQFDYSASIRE

[26] = target: SRC (human) (UniProt P12931)
Chain of SRC (human) (P12931 whole entry, looked up): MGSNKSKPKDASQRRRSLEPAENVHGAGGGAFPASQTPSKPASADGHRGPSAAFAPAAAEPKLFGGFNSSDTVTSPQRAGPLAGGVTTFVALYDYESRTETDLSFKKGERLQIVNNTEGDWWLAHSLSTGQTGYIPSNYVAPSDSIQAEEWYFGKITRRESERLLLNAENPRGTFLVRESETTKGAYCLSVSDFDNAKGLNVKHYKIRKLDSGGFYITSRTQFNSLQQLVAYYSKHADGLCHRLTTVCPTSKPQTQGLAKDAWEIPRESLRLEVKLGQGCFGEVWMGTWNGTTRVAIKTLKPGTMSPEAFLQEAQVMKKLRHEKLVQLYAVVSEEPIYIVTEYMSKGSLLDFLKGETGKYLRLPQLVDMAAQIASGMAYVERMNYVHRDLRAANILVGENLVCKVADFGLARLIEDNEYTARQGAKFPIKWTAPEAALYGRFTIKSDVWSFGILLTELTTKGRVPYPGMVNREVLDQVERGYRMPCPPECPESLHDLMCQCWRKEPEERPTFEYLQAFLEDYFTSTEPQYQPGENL

[27] = target: GSK3B (human) (UniProt P49841)
[28] = target: MAP2K2 (human) (UniProt P36507)
[29] = test system: PAK2 (human), Q13177 [T402E]
[30] = target: MAPK1 (human) (UniProt P28482)
[31] = target: MARK4 (human) (UniProt Q96L34)
Chain of MARK4 (human) (Q96L34 whole entry, looked up): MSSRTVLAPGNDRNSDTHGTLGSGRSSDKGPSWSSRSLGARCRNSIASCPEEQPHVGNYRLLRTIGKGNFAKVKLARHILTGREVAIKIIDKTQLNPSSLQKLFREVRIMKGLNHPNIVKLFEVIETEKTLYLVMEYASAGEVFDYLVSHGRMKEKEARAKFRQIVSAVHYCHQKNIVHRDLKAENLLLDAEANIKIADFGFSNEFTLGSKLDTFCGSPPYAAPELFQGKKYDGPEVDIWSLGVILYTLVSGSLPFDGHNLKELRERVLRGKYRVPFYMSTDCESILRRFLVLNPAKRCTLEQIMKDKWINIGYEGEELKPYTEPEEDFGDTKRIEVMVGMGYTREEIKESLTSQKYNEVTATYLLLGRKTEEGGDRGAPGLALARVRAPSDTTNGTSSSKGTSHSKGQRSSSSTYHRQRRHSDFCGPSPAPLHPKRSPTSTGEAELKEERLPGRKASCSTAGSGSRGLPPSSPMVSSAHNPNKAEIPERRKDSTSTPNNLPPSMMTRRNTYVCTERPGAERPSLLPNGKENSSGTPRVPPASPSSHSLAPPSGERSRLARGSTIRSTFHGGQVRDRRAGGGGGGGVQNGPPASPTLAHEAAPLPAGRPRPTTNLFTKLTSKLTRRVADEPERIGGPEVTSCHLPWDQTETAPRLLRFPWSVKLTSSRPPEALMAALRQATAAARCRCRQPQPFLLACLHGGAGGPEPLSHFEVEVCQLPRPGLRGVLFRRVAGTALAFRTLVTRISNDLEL

[32] = target: EPHB4 (human) (UniProt P54760)
[33] = target: MAPK13 (human) (UniProt O15264)
[34] = target: PKN2 (human) (UniProt Q16513)
[35] = target: EEF2K (human) (UniProt O00418)
[36] = target: PRKCZ (human) (UniProt Q05513)

Chain of HIPK2 (human) (Q9H2X6 whole entry, looked up): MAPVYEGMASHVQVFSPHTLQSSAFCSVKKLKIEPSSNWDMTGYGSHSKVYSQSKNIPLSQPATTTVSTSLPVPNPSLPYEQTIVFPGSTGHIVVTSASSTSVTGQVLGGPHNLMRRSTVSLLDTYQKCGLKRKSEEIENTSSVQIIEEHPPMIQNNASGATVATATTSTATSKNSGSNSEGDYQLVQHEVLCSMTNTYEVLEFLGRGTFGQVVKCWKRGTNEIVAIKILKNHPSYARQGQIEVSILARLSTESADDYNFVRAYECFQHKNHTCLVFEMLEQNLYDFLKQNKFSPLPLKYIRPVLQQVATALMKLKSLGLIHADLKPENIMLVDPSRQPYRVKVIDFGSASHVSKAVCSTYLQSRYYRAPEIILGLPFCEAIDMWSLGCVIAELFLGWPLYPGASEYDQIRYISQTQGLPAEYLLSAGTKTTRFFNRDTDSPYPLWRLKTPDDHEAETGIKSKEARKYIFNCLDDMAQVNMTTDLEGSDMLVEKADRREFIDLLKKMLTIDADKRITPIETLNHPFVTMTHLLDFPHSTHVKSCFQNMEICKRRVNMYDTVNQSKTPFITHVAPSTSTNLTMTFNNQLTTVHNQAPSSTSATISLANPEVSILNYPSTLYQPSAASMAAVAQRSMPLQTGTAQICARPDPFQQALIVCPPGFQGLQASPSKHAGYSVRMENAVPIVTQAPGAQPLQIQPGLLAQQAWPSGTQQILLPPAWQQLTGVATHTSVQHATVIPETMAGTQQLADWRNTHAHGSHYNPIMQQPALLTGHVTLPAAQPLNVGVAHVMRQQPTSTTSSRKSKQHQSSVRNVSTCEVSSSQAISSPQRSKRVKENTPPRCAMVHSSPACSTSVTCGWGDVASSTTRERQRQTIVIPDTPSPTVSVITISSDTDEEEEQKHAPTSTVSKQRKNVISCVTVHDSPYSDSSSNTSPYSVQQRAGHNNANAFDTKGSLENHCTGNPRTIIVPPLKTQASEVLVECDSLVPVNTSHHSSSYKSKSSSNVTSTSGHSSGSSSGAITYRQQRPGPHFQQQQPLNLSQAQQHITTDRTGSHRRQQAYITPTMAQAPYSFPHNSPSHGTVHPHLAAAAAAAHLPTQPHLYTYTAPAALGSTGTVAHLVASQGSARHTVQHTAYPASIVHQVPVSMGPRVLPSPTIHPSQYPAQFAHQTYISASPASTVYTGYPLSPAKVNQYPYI

A residual activity ([1]; compound 1.0 µM) of 87%, a residual activity ([1]; compound 5.0 µM) of 94% and a residual activity ([1]; compound 10.0 µM) of 84% were found for `Oc1ccc2ccccc2c1SSc1c(O)ccc2ccccc12` in this work. The residual activity ([2]; compound 1.0 µM) was 77%, the residual activity ([2]; compound 5.0 µM) was 12% and the residual activity ([2]; compound 10.0 µM) was 92%. It also gave a residual activity ([3]; compound 1.0 µM) of 103%, a residual activity ([3]; compound 5.0 µM) of 102% and a residual activity ([4]; compound 1.0 µM) of 64%. The residual activity ([4]; compound 5.0 µM) was 38%, the residual activity ([5]; compound 1.0 µM) was 52% and the residual activity ([5]; compound 5.0 µM) was 48%. For the same compound, the residual activity ([6]; compound 1.0 µM) was 68%, the residual activity ([6]; compound 5.0 µM) was 40% and the residual activity ([7]; compound 1.0 µM) was 24%. The residual activity ([7]; compound 5.0 µM) was 15%, the residual activity ([7]; compound 10.0 µM) was 73% and the residual activity ([8]; compound 1.0 µM) was 96%. The residual activity ([8]; compound 5.0 µM) was 94%, the residual activity ([9]; compound 1.0 µM) was 6% and the residual activity ([9]; compound 5.0 µM) was 4%. The residual activity ([9]; compound 10.0 µM) was 47%, the residual activity ([10]; compound 1.0 µM) was 24% and the residual activity ([10]; compound 5.0 µM) was 4%. For the same compound, the residual activity ([10]; compound 10.0 µM) was 29%, the residual activity ([11]; compound 1.0 µM) was 86% and the residual activity ([11]; compound 5.0 µM) was 45%. The residual activity ([11]; compound 10.0 µM) was 101%, the residual activity ([12]; compound 1.0 µM) was 74% and the residual activity ([12]; compound 5.0 µM) was 51%. For the same compound, the residual activity ([12]; compound 10.0 µM) was 87%, the residual activity ([13]; compound 1.0 µM) was 129% and the residual activity ([13]; compound 5.0 µM) was 154%. The residual activity ([14]; compound 1.0 µM) was 59%, the residual activity ([14]; compound 5.0 µM) was 34% and the residual activity ([14]; compound 10.0 µM) was 60%. The residual activity ([15]; compound 1.0 µM) was 94%, the residual activity ([15]; compound 5.0 µM) was 80% and the residual activity ([15]; compound 10.0 µM) was 94%. The residual activity ([16]; compound 1.0 µM) was 60%, the residual activity ([16]; compound 5.0 µM) was 17% and the residual activity ([17]; compound 1.0 µM) was 2%. It also gave a residual activity ([17]; compound 5.0 µM) of 2%, a residual activity ([17]; compound 10.0 µM) of 5% and a residual activity ([18]; compound 1.0 µM) of 30%. For the same compound, the residual activity ([18]; compound 5.0 µM) was 2%, the residual activity ([19]; compound 1.0 µM) was 13% and the residual activity ([19]; compound 5.0 µM) was 14%. The residual activity ([19]; compound 10.0 µM) was 97%, the residual activity ([20]; compound 1.0 µM) was 2% and the residual activity ([20]; compound 5.0 µM) was 2%. The residual activity ([21]; compound 1.0 µM) was 16%, the residual activity ([21]; compound 5.0 µM) was 4% and the residual activity ([22]; compound 1.0 µM) was 89%. For the same compound, the residual activity ([22]; compound 5.0 µM) was 88%, the residual activity ([22]; compound 10.0 µM) was 88% and the residual activity ([23]; compound 1.0 µM) was 106%. The residual activity ([23]; compound 5.0 µM) was 77%, the residual activity ([24]; compound 1.0 µM) was 118% and the residual activity ([24]; compound 5.0 µM) was 102%. It also gave a residual activity ([25]; compound 1.0 µM) of 1%, a residual activity ([25]; compound 5.0 µM) of 0% and a residual activity ([25]; compound 10.0 µM) of 0%. It also gave a residual activity ([26]; compound 1.0 µM) of 42%, a residual activity ([26]; compound 5.0 µM) of 17% and a residual activity ([26]; compound 10.0 µM) of 89%. The residual activity ([27]; compound 1.0 µM) was 68%, the residual activity ([27]; compound 5.0 µM) was 30% and the residual activity ([27]; compound 10.0 µM) was 106%. The residual activity ([28]; compound 1.0 µM) was 90%, the residual activity ([28]; compound 5.0 µM) was 48% and the residual activity ([29]; compound 1.0 µM) was 5%. It also gave a residual activity ([29]; compound 5.0 µM) of 2%, a residual activity ([30]; compound 1.0 µM) of 56% and a residual activity ([30]; compound 5.0 µM) of 39%. It also gave a residual activity ([30]; compound 10.0 µM) of 101%, a residual activity ([31]; compound 1.0 µM) of 47% and a residual activity ([31]; compound 5.0 µM) of 41%. The residual activity ([32]; compound 1.0 µM) was 109%, the residual activity ([32]; compound 5.0 µM) was 119% and the residual activity ([33]; compound 1.0 µM) was 102%. For the same compound, the residual activity ([33]; compound 5.0 µM) was 102%, the residual activity ([33]; compound 10.0 µM) was 104% and the residual activity ([34]; compound 1.0 µM) was 72%. The residual activity ([34]; compound 5.0 µM) was 30%, the residual activity ([34]; compound 10.0 µM) was 87% and the residual activity ([35]; compound 1.0 µM) was 83%. It also gave a residual activity ([35]; compound 5.0 µM) of 60%, a residual activity ([35]; compound 10.0 µM) of 89% and a residual activity ([36]; compound 1.0 µM) of 44%. It also gave a residual activity ([36]; compound 5.0 µM) of 11% and a residual activity ([36]; compound 10.0 µM) of 39%.

A residual activity ([1]; compound 10.0 µM) of 105%, a residual activity ([2]; compound 10.0 µM) of 85% and a residual activity ([3]; compound 1.0 µM) of 103% were found for `NCC(=O)Nc1ccc(-n2nc(C(F)(F)F)cc2-c2ccc3c(ccc4ccccc43)c2)cc1` in this work. For the same compound, the residual activity ([3]; compound 10.0 µM) was 92%, the residual activity ([4]; compound 1.0 µM) was 93% and the residual activity ([4]; compound 10.0 µM) was 103%. For the same compound, the residual activity ([5]; compound 1.0 µM) was 104%, the residual activity ([5]; compound 10.0 µM) was 90% and the residual activity ([6]; compound 1.0 µM) was 90%. The residual activity ([6]; compound 10.0 µM) was 86%, the residual activity ([7]; compound 1.0 µM) was 88% and the residual activity ([7]; compound 10.0 µM) was 69%. It also gave a residual activity ([8]; compound 1.0 µM) of 96%, a residual activity ([8]; compound 10.0 µM) of 93% and a residual activity ([9]; compound 1.0 µM) of 79%. It also gave a residual activity ([9]; compound 10.0 µM) of 89%, a residual activity ([10]; compound 1.0 µM) of 111% and a residual activity ([11]; compound 1.0 µM) of 88%. For the same compound, the residual activity ([11]; compound 10.0 µM) was 28%, the residual activity ([12]; compound 1.0 µM) was 109% and the residual activity ([13]; compound 1.0 µM) was 86%. For the same compound, the residual activity ([13]; compound 10.0 µM) was 83%, the residual activity ([14]; compound 1.0 µM) was 85% and the residual activity ([14]; compound 10.0 µM) was 80%. It also gave a residual activity ([15]; compound 1.0 µM) of 102%, a residual activity ([15]; compound 10.0 µM) of 96% and a residual activity ([16]; compound 1.0 µM) of 103%. The residual activity ([16]; compound 10.0 µM) was 99%, the residual activity ([17]; compound 1.0 µM) was 93% and the residual activity ([17]; compound 10.0 µM) was 88%. The residual activity ([18]; compound 1.0 µM) was 107%, the residual activity ([18]; compound 10.0 µM) was 92% and the residual activity ([19]; compound 1.0 µM) was 92%. The residual activity ([19]; compound 10.0 µM) was 75%, the residual activity ([20]; compound 1.0 µM) was 95% and the residual activity ([20]; compound 10.0 µM) was 107%. It also gave a residual activity ([21]; compound 1.0 µM) of 99%, a residual activity ([21]; compound 10.0 µM) of 80% and a residual activity ([22]; compound 1.0 µM) of 72%. For the same compound, the residual activity ([22]; compound 10.0 µM) was 44%, the residual activity ([23]; compound 1.0 µM) was 85% and the residual activity ([23]; compound 10.0 µM) was 86%. The residual activity ([24]; compound 1.0 µM) was 72%, the residual activity ([24]; compound 10.0 µM) was 67% and the residual activity ([25]; compound 1.0 µM) was 87%. It also gave a residual activity ([25]; compound 10.0 µM) of 54%, a residual activity ([26]; compound 1.0 µM) of 103% and a residual activity ([26]; compound 10.0 µM) of 135%. For the same compound, the residual activity ([27]; compound 1.0 µM) was 110%, the residual activity ([27]; compound 10.0 µM) was 119% and the residual activity ([28]; compound 1.0 µM) was 123%. It also gave a residual activity ([28]; compound 10.0 µM) of 113%, a residual activity ([29]; compound 1.0 µM) of 107% and a residual activity ([29]; compound 10.0 µM) of 75%. For the same compound, the residual activity ([30]; compound 1.0 µM) was 101%, the residual activity ([30]; compound 10.0 µM) was 88% and the residual activity ([31]; compound 1.0 µM) was 88%. The residual activity ([31]; compound 10.0 µM) was 102%, the residual activity ([32]; compound 1.0 µM) was 116% and the residual activity ([33]; compound 1.0 µM) was 96%. The residual activity ([33]; compound 10.0 µM) was 70%, the residual activity ([34]; compound 1.0 µM) was 85% and the residual activity ([34]; compound 10.0 µM) was 63%. It also gave a residual activity ([35]; compound 10.0 µM) of 75%, a residual activity ([36]; compound 1.0 µM) of 94% and a residual activity ([36]; compound 10.0 µM) of 61%.
